Reference: publication PMC8118275, “Allosteric MAPKAPK2 inhibitors improve plaque stability in advanced atherosclerosis” (PLoS ONE, 2021)

Key:
[1] = target: hMK2 (Homo sapiens, UniProt P49137); test: hMK2 inhibition; format: biochemical
[2] = Pharmacokinetics in CD-1 mice after single oral and intravenous administration; format: in vivo, mouse; conditions: for Clearance (Cl) / Cmax / F (oral bioavailability) / Half-life: CD-1 mice, TBX-1 1 mpk iv and 5 mpk po, TBX-2 1 mpk iv and 3 mpk po; for plasma half-life: mice, intravenous and oral administration
Protocol: The pharmacokinetics of the compounds were evaluated in CD-1 mice by single oral and intravenous routes of drug administration. The mice were fasted overnight before oral-gavage dosing of the compounds. The solutions used for PK studies were prepared by dissolving the compounds in 5% Solutol HS 15 in water. Following oral or intravenous administration of compounds, blood samples were collected at 0.08, 0.25, 0.5, 1, 2, 4, 6, 8, 12, and 24 h after dosing. Blood samples were centrifuged to separate plasma, and compound concentrations were determined by LC-MS. Dosing was well tolerated following oral and intravenous administration of both compounds, and no abnormal behavior was observed.

[3] = system: WD-fed Ldlr-/- mice; test: Metabolism, plasma lipids, blood cells and tolerability in WD-fed Ldlr-/- mice with established atherosclerosis; format: in vivo, mouse; conditions: ~30 mg/kg body weight per day in WD for 6 weeks; for blood leukocyte (total white blood cell) count / blood monocyte count: versus control
Protocol: (§1) Eight-week-old male Ldlr^-/- mice on the C57BL/6J background were purchased from Jackson Laboratory (stock # 002207) and fed a Western-type Diet (WD) for 16 weeks (Envigo, TD.88137; 21.2% fat, 0.2% cholesterol, 48.5% carbohydrate, and 17.3% protein by weight). Between weeks 10–16 of feeding, the WD of the experimental group was supplemented with TBX-1 or TBX-2 (600 mg/kg diet) to achieve a dose of ∼30 mg/kg body weight per day, whereas control mice remained on regular WD. The study included four separate cohorts, each comprised of 5 to 10 mice per group. The mice were randomly assigned to the different cohorts. Fasting blood glucose was measured in mice that were fasted for 5 h, with free access to water, using a glucose meter. Insulin tolerance test was performed in 5 h-fasted mice by assaying blood glucose at various times after injection of insulin (0.7 IU/kg body wt i.p.). Plasma insulin levels were measured in mice that were fasted for 5 h using an ultra-sensitive mouse insulin ELISA kit (Crystal Chem). At the time of harvest, mice were euthanized using isoflurane, and blood was then removed by left ventricular puncture. Animals were provided with food and water ad libitum and housed in standard cages at 22°C in a 12-12h light-dark cycle in a barrier facility. The Columbia University IACUC provided ethical approval for these studies, and procedures were conducted in accordance with approved animal protocols.
Total plasma cholesterol and triglyceride levels were measured using commercially available kits (Wako Diagnostics). Plasma lipoproteins were analyzed by running 200 μl of pooled plasma onto a fast protein liquid chromatography system consisting of 2 Superose 6 columns connected in series (Amersham Pharmacia Biotech) as described previously.

[4] = system: aortic root lesions of WD-fed Ldlr-/- mice; test: Aortic root atherosclerotic lesion analysis and in situ efferocytosis in WD-fed Ldlr-/- mice; format: in vivo, mouse; conditions: for total necrotic area: aortic root; for collagen content of the lesions / fibrous-cap thickness: picrosirius red; for collagen content of the lesions: percent of total lesion area; for fibrous-cap thickness: ratio of cap thickness to lesion size
Protocol: as §1
Total lesion area and necrotic area analysis were carried out on hematoxylin and eosin (H&E)-stained aortic root lesional cross sections as previously described. Briefly, total lesion area (from internal elastic lamina to the lumen) and acellular/anuclear areas (negative for hematoxylin-positive nuclei) per cross section were quantified by taking the average of 6 sections spaced 30 μm apart beginning at the base of the aortic root. Necrotic areas were defined as anuclear areas based on absence of hematoxylin staining. Collagen staining was performed using picrosirius red as per the manufacturer’s instructions (Polysciences Inc.), and fibrous cap thickness was quantified from 3 distinct regions of the plaque and scored per lesion size as previously described. For immunofluorescence staining, frozen sections were fixed in cold acetone for 10 minutes. After blocking for 1 hour in serum-free protein blocking buffer (DAKO, catalog X0909), sections were incubated overnight at 4°C with anti–phospho-hsp25 (CST, 1:200), anti-Mac2 (1:10,000), and smooth-muscle α actin (SMαA, 1:150) antibodies, rinsed with PBS three times, incubated with fluorescently-labeled secondary antibodies for 2 hours, and counterstained with DAPI. Three slides, each with 2 sections, were assessed for each mouse.
Experimentation was carried out as previously described. In brief, acetone-fixed aortic root sections were incubated with TUNEL (Roche) followed by staining with anti-Mac2 (1:10,000) to label macrophages. Apoptotic cells were then determined to be either macrophage-associated (colocalizing or juxtaposed with macrophages) or free (not associated with macrophages). Data were plotted as a ratio of associated-to free cells, which is a measure of efferocytosis.

[5] = system: forskolin-induced G6pc mRNA; test: Forskolin-induced G6pc mRNA in primary mouse hepatocytes (RT-qPCR); format: cell-based; conditions: TBX-1 1 h, then TBX-1 and forskolin 4 h in serum-free media
Protocol: Primary mouse hepatocytes were isolated from 8- to 12-week-old mice as described previously and cultured in media containing Dulbecco’s Modified Eagle’s Medium (DMEM) (Corning, #10-013-CV), 10% (vol/vol) heat-inactivated FBS, and 1X penicillin-streptomycin. After overnight incubation, the cells were washed twice with PBS, treated with the indicated concentrations of TBX-1 for 1 h, followed by treatment with TBX-1 and forskolin for 4 h in FBS-free media.
Immunoblot and quantitative RT-PCR (RT-qPCR) assays were conducted as previously described. […]
Densitometric quantification of the data are shown in the bar graphs (n = 5-6 mice/group; mean ± SEM, p = 0.003, p = 0.001 and p = 0.02, respectively).
S2 Fig. Blood leukocyte and monocyte counts are similar between control and MK2 inhibitor–treated mice. […] Whole blood was analyzed for the number of total white blood cells (A) and monocytes (B) from a randomly selected subset of TBX-1–treated Ldlr-/- mice (n = 19 mice/group; mean ± SEM). […]
S3 Fig. Lesional collagen content is increased, whereas macrophage and smooth muscle cell numbers are similar between control and MK2 inhibitor–treated mice. […] Picrosirius red staining was quantified, and collagen content is expressed as percent of total lesion area (n = 7-10 mice/group; mean ± SEM, p = 0.009 and p = 0.03, respectively). […]

[6] = system: MK2 activity (phospho-hsp25); test: Phospho-hsp25 (MK2 substrate) in liver and aortic root lesions of WD-fed Ldlr-/- mice; format: in vivo, mouse; conditions: ~30 mg/kg body weight per day in WD for 6 weeks
Protocol: Eight-week-old male Ldlr^-/- mice on the C57BL/6J background were purchased from Jackson Laboratory (stock # 002207) and fed a Western-type Diet (WD) for 16 weeks (Envigo, TD.88137; 21.2% fat, 0.2% cholesterol, 48.5% carbohydrate, and 17.3% protein by weight). Between weeks 10–16 of feeding, the WD of the experimental group was supplemented with TBX-1 or TBX-2 (600 mg/kg diet) to achieve a dose of ∼30 mg/kg body weight per day, whereas control mice remained on regular WD. The study included four separate cohorts, each comprised of 5 to 10 mice per group. The mice were randomly assigned to the different cohorts. Fasting blood glucose was measured in mice that were fasted for 5 h, with free access to water, using a glucose meter. […] Plasma insulin levels were measured in mice that were fasted for 5 h using an ultra-sensitive mouse insulin ELISA kit (Crystal Chem). […]
Total lesion area and necrotic area analysis were carried out on hematoxylin and eosin (H&E)-stained aortic root lesional cross sections as previously described. Briefly, total lesion area (from internal elastic lamina to the lumen) and acellular/anuclear areas (negative for hematoxylin-positive nuclei) per cross section were quantified by taking the average of 6 sections spaced 30 μm apart beginning at the base of the aortic root. […] Three slides, each with 2 sections, were assessed for each mouse. […]

Sequence of hMK2 (P49137 whole entry): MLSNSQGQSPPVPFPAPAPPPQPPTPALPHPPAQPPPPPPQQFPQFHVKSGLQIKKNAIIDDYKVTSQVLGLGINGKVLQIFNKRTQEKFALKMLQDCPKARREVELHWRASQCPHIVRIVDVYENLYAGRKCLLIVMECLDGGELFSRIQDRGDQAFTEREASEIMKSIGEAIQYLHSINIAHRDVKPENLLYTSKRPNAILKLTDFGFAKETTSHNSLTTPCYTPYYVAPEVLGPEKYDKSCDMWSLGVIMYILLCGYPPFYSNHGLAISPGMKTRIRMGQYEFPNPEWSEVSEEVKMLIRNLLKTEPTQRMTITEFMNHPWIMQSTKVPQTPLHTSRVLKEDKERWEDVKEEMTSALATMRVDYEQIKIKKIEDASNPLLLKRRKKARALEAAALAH

Row | IC50 [1] [nM] | Clearance (Cl) [2] [mL/min/kg] | Cmax [2] [nM] | F (oral bioavailability) [2] [%] | Half-life [2] [h] | plasma half-life [2] [h] | Structure (SMILES) | blood leukocyte (total white blood cell) count [3] | blood monocyte count [3] | LDL-cholesterol (fast protein liquid chromatography of plasma) [3] | VLDL-cholesterol (fast protein liquid chromatography of plasma) [3] | total necrotic area [4] | collagen content of the lesions [4] | fibrous-cap thickness [4] | forskolin-induced G6pc mRNA [5] | phospho-hsp25 levels in atherosclerotic lesions ([6]; aortic root sections, MFI within Mac2+ area) | phosphorylation of hsp25 in liver ([6]; liver extracts, immunoblot)
1 | 19 | 12.2 | 296 | 89.1 | 3.1 | 3.1 | CN(C)C[C@H]1CC(=O)N(c2ccc3c(c2)Cn2cc(-c4ccc(C#N)cc4)cc2-c2nccn2-3)C1 [TBX-2] | similar | similar | reduced | reduced | significantly reduced | significantly increased | significantly increased | – | – | –
2 | 67 | 24.8 | 58 | 20.0 | 2.7 | 2.7 | CN(C)[C@@H]1CCN(c2ccc3c(c2)Cn2cc(-c4ccc(C#N)cc4)cc2-c2nncn2-3)C1 [TBX-1] | similar | similar | reduced | reduced | significantly reduced | significantly increased | significantly increased | inhibited forskolin-induced G6pc mRNA in a dose-dependent manner | significantly reduced | efficiently reduced
